According to US10696707B2, “Polyene macrolide derivative” (Shionogi & Co., Ltd., priority 2014, dated 2020):
Where two headings read alike, the source gives them in different places.

Tested on: red blood cells (5% RBC suspension)
Assay: Test Example 2-1: in vitro hemolytic activity test (upper limit 50, 80, 100 or 200 μmol/L)
Format: cell-based
Conditions: 5% RBC suspension, 37° C., one hour, read-out: hemolysis IC50
Description: Nephrotoxic potentials of the compounds of the present invention except the compounds whose X is —N(R^F)—CO—X^1 and X^1 is the group represented by formula (III) and T is —N(R^a5)— were investigated by in vitro hemolytic activity test under the condition, in that, the upper limit was 50 μmol/L, 80 μmol/L, 100 μmol/L, or 200 μmol/L as the required concentration to 50% of hemolysis (IC50).
Defibrinated sterile blood was centrifuged at 700×g for 3 minutes and, and the supernatant was removed for 100% of red blood cells. After the cleaning with physiological saline, the washed blood cells was suspended in the medium (Earle's balanced salt sodium, bicarbonate, 0.1 g/L L-glutamine without phenol red), and was diluted by 5% (5% RBC suspension).
The washed blood was diluted by 5% in water for injection (solution of complete hemolysis), and was used as the indication of optical density for complete hemolysis.
The compounds of the present invention solution in DMSO (several and doubling dilutions starting from 2.5 mmol/L, 4 mmol/L, 5 mmol/L, or 10 mmol/L), DMSO as the negative control, and Amphotericin B as the positive control were used, and each 5 μL of these was added in to a well of V-form 96 well type microplate.
Finally, the maximum concentration of the compounds of the present invention solution in DMSO was 50 μmol/L, 80 μmol/L, 100 μmol/L, or 200 μmol/L by adding 245 μL of the medium or 5% RBC suspension into the well.
Two hundred fifty μL of the solution of complete hemolysis was added into another well and the microplate was incubated at 37° C. in 5% of CO2 concentration for an hour.
After the incubation, each 100 μL of supernatants in wells was collected by centrifugation of the microplate at 300×g for 5 minutes and was located on a well of flat-form 96 well type microplate. An absorbance of each supernatant was measured at wavelength of 540 nm.
Percent hemolysis was calculated by using the followed equation. The required concentration to 50% of hemolysis (IC50) was calculated based on the percent hemolysis. […] Hemolysis (%)=(CR−VM)×100÷(VL−VR) Where:
CR: Absorbance of 5% RBC suspension incubated with the compounds of the present invention solution in DMSO
VM: Absorbance of medium incubated with the compounds of the present invention solution in DMSO
VL: Absorbance of solution of complete hemolysis
VR: Absorbance of 5% RBC suspension incubated with DMSO
The “hemolysis method” in the table means any tests the upper concentration of above IC50 are 50 μmol/L, 80 μmol/L, 100 μmol/L or 200 μmol/L. The “>50”, “>80”, “>100” or “>200” in the table means above IC50 value exceeded the each upper concentration.

[1] = hemolysis method 80 (upper concentration 80 μmol/L)
[2] = hemolysis method 100 (upper concentration 100 μmol/L)
[3] = hemolysis method 50 (upper concentration 50 μmol/L)

| SMILES | IC50 [1] [µM] | IC50 [2] [µM] | also measured |
| --- | --- | --- | --- |
| C[C@@H]1[C@H](O)[C@@H](C)/C=C/C=C/C=C/C=C/C=C/C=C/C=C/[C@H](O[C@@H]2O[C@H](C)[C@@H](O)[C@H](N)[C@@H]2O)C[C@@H]2O[C@](O)(C[C@@H](O)C[C@@H](O)[C@H](O)CC[C@@H](O)C[C@@H](O)CC(=O)O[C@H]1C)C[C@H](O)[C@H]2NC(=O)N1CCN(CCCOc2ccccc2)CC1 [I-24] | > 80 | – | – |
| C[C@@H]1[C@H](O)[C@@H](C)/C=C/C=C/C=C/C=C/C=C/C=C/C=C/[C@H](O[C@@H]2O[C@H](C)[C@@H](O)[C@H](N)[C@@H]2O)C[C@@H]2O[C@](O)(C[C@@H](O)C[C@@H](O)[C@H](O)CC[C@@H](O)C[C@@H](O)CC(=O)O[C@H]1C)C[C@H](O)[C@H]2NC(=O)NCCCN(C)C [I-7] | – | 81 | – |
| C[C@@H]1[C@H](O)[C@@H](C)/C=C/C=C/C=C/C=C/C=C/C=C/C=C/[C@H](O[C@@H]2O[C@H](C)[C@@H](O)[C@H](N)[C@@H]2O)C[C@@H]2O[C@](O)(C[C@@H](O)C[C@@H](O)[C@H](O)CC[C@@H](O)C[C@@H](O)CC(=O)O[C@H]1C)C[C@H](O)[C@H]2NC(=O)NCCc1ccccn1 [I-15] | > 80 | – | – |
| C[C@@H]1[C@H](O)[C@@H](C)/C=C/C=C/C=C/C=C/C=C/C=C/C=C/[C@H](O[C@@H]2O[C@H](C)[C@@H](O)[C@H](N)[C@@H]2O)C[C@@H]2O[C@](O)(C[C@@H](O)C[C@@H](O)[C@H](O)CC[C@@H](O)C[C@@H](O)CC(=O)O[C@H]1C)C[C@H](O)[C@H]2NC(=O)NC1CC1 [I-41] | – | – | IC50 (Erythrocyte, 1 h, hemolysis method 50 (upper concentration 50 μmol/L)): > 50 µM |
| C[C@@H]1[C@H](O)[C@@H](C)/C=C/C=C/C=C/C=C/C=C/C=C/C=C/[C@H](O[C@@H]2O[C@H](C)[C@@H](O)[C@H](N)[C@@H]2O)C[C@@H]2O[C@](O)(C[C@@H](O)C[C@@H](O)[C@H](O)CC[C@@H](O)C[C@@H](O)CC(=O)O[C@H]1C)C[C@H](O)[C@H]2NC(=O)N(CCO)CCO [I-39] | > 80 | – | – |
| C[C@@H]1[C@H](O)[C@@H](C)/C=C/C=C/C=C/C=C/C=C/C=C/C=C/[C@H](O[C@@H]2O[C@H](C)[C@@H](O)[C@H](N)[C@@H]2O)C[C@@H]2O[C@](O)(C[C@@H](O)C[C@@H](O)[C@H](O)CC[C@@H](O)C[C@@H](O)CC(=O)O[C@H]1C)C[C@H](O)[C@H]2NC(=O)N1CCC1C(=O)O (stereo partly drawn) [I-283] | – | – | IC50 [3]: > 50 µM |
| COC(=O)CCCNC(=O)N[C@H]1[C@@H]2C[C@@H](O[C@@H]3O[C@H](C)[C@@H](O)[C@H](N)[C@@H]3O)/C=C/C=C/C=C/C=C/C=C/C=C/C=C/[C@H](C)[C@@H](O)[C@@H](C)[C@H](C)OC(=O)C[C@H](O)C[C@H](O)CC[C@@H](O)[C@H](O)C[C@H](O)C[C@](O)(C[C@@H]1O)O2 [I-55] | – | – | IC50 [3]: > 50 µM |
| C[C@@H]1[C@H](O)[C@@H](C)/C=C/C=C/C=C/C=C/C=C/C=C/C=C/[C@H](O[C@@H]2O[C@H](C)[C@@H](O)[C@H](NC(=O)CN(C)C)[C@@H]2O)C[C@@H]2O[C@](O)(C[C@@H](O)C[C@@H](O)[C@H](O)CC[C@@H](O)C[C@@H](O)CC(=O)O[C@H]1C)C[C@H](O)[C@H]2NC(=O)NCCN(C)C [I-327] | – | > 50 | – |
| C[C@@H]1[C@H](O)[C@@H](C)/C=C/C=C/C=C/C=C/C=C/C=C/C=C/[C@H](O[C@@H]2O[C@H](C)[C@@H](O)[C@H](N)[C@@H]2O)C[C@@H]2O[C@](O)(C[C@@H](O)C[C@@H](O)[C@H](O)CC[C@@H](O)C[C@@H](O)CC(=O)O[C@H]1C)C[C@H](O)[C@H]2NC(=O)NC1CN(C)C1 [I-62] | – | 50 | – |
